Measurements: ChEMBL document CHEMBL1614629, “Extrapolation of human pharmacokinetic parameters from rat, dog, and monkey data: Molecular properties associated with extrapolative success or failure” (J Pharm Sci, 2005)

Columns and labels:
[1] = Volume of distribution at steady state in monkey after iv administration; format: ADME, organism-based; settings: macaca, in vivo, read-out: Vdss
[2] = Volume of distribution at steady state in human after iv administration; format: ADME, organism-based; settings: in vivo, read-out: Vdss
[3] = Volume of distribution at steady state in dog after iv administration; format: ADME, organism-based, Canis lupus familiaris; settings: in vivo, read-out: Vdss
[4] = Volume of distribution at steady state in rat after iv administration; format: ADME, organism-based; settings: in vivo
[5] = Clearance in rat after iv administration; format: ADME, organism-based; settings: in vivo
[6] = Clearance in dog after iv administration; format: ADME, organism-based, Canis lupus familiaris; settings: in vivo
[7] = Clearance in human after iv administration; format: ADME, organism-based; settings: in vivo
[8] = Clearance in monkey after iv administration; format: ADME, organism-based; settings: macaca, in vivo

SMILES | Vd [1] [L/kg] | Vd [2] [L/kg] | Vd [3] [L/kg] | Vdss [4] [L/kg] | clearance [5] [mL/min/kg] | clearance [6] [mL/min/kg] | clearance [7] [mL/min/kg] | clearance [8] [mL/min/kg]
Cn1cc(/C=C2/C(=O)N3C(C(=O)O)=CS[C@H]23)nn1 | 0.27 | 0.28 | 0.32 | 1.3 |  |  |  | 
O=C(OC1C[C@@H]2CC3C[C@@H](C1)N2CC3O)c1c[nH]c2ccccc12 (some centres not stated) | 28 | 11 | 9.6 | 15 | 94 | 27 | 22 | 77
CC(C)(C)S(=O)(=O)C[C@@H](Cc1ccccc1)C(=O)N[C@@H](Cc1cnc[nH]1)C(=O)N[C@@H](CC1CCCCC1)[C@@H](O)[C@@H](O)C1CC1 | 1.7 | 0.84 | 1.5 | 4.4 |  | 25 | 10 | 20
CC(=N)N1CC[C@H](SC2=C(C(=O)O)N3C(=O)[C@H]([C@@H](C)O)[C@H]3C2)C1 | 0.3 | 0.18 | 0.22 | 0.19 | 28 | 4.9 | 3.1 | 6.5
Cc1cccc(C)c1NC(=O)NCCCNC(C)C | 3.8 | 1.4 | 1.2 | 3.2 | 82 | 13 | 7.2 | 32
C[C@@H](O)[C@H]1C(=O)N2C(C(=O)O)=C(COC(N)=O)S[C@H]12 | 0.15 | 0.25 | 0.23 | 0.05 | 16 | 7.7 | 7.2 | 4.7
NC1(C(=O)O)CC1 [1-Aminocyclopropane carboxylic acid] | 0.72 | 0.73 | 0.7 | 0.64 | 3.2 | 0.4 | 1.5 | 3.1
N[C@H](C(=O)O)[C@@H]1CC(Cl)=NO1 [ACIVICIN] | 0.56 | 0.58 | 0.5 | 0.65 | 5.2 | 1.3 | 0.78 | 3.3
CC1=NC(=O)C(CCN(C(C)C)C(C)C)(c2ccccc2)C2CCCCN12 (configuration not stated) [ACTISOMIDE] | 1.6 | 0.58 | 1.1 | 1.1 | 9.8 | 9 | 6.8 | 16.4
C[C@@H]1[C@H](O)[C@@H](C)/C=C/C=C/C=C/C=C/C=C/C=C/C=C/[C@H](O[C@@H]2O[C@H](C)[C@@H](O)[C@H](N)[C@@H]2O)C[C@@H]2O[C@](O)(C[C@@H](O)C[C@@H](O)[C@H](O)CC[C@@H](O)C[C@@H](O)CC(=O)O[C@H]1C)C[C@H](O)[C@H]2C(=O)O [AMPHOTERICIN B] | 0.2 | 4 | 0.5 | 2.3 | 2 | 0.1 | 0.4 | 0.1
Cc1cc(=O)n(-c2ccccc2)n1C [ANTIPYRINE] | 0.74 | 0.87 | 0.62 | 0.97 | 10 | 5.5 | 0.66 | 4.4
Cn1c(=O)c2c(ncn2C)n(C)c1=O [CAFFEINE] | 0.83 | 0.73 | 0.76 | 0.92 |  | 2.1 | 2 | 3.1
COC(=O)[C@H]1[C@@H](OC(=O)c2ccccc2)C[C@@H]2CC[C@H]1N2C [COCAINE] | 7.4 |  | 3.8 | 16 | 260 | 102 | 32 | 64
CO[C@@]1(NC(=O)CSC(F)F)C(=O)N2C(C(=O)O)=C(CSc3nnnn3CCO)CO[C@@H]21 [FLOMOXEF] | 0.3 | 0.52 | 0.32 | 0.23 |  |  |  | 
CC1(C)O[C@@H]2C[C@H]3[C@@H]4C[C@H](F)C5=CC(=O)C=C[C@]5(C)[C@H]4[C@@H](O)C[C@]3(C)[C@]2(C(=O)CO)O1 [FLUNISOLIDE] | 4 |  | 3.7 | 3 | 8.8 | 12.9 | 12 | 19
CC(C)n1c(/C=C/C(O)CC(O)CC(=O)O)c(-c2ccc(F)cc2)c2ccccc21 (configuration not stated) [FLUVASTATIN] | 3.7 | 0.42 | 0.7 | 1 |  |  |  | 
O=C(c1ccccc1)c1ccc2n1CCC2C(=O)O (configuration not stated) [KETOROLAC] | 0.09 |  | 0.33 | 0.56 | 3.6 | 1.3 |  | 0.6
N=C(N)c1ccc(C(=O)N[C@@H](Cc2ccc(O)cc2)C(=O)N2CCC(OCC(=O)O)CC2)cc1 [LAMIFIBAN] | 0.29 | 0.29 | 0.75 | 0.24 |  |  |  | 
CN(Cc1cnc2nc(N)nc(N)c2n1)c1ccc(C(=O)N[C@@H](CCC(=O)O)C(=O)O)cc1 [METHOTREXATE] | 1.2 | 0.67 |  | 0.4 | 12 | 1.2 | 2.5 | 8
COCCc1ccc(OCC(O)CNC(C)C)cc1 (configuration not stated) [METOPROLOL] | 3 |  | 4.5 | 7 | 185 | 23 | 15 | 30
N=C(N)N1CCC[C@@H](CNC(=O)C[C@H](NS(=O)(=O)c2ccc3ccccc3c2)C(=O)N(CC(=O)O)C2CC2)C1 [NAPSAGATRAN ANHYDROUS] | 0.26 | 0.32 | 0.69 | 0.62 |  |  |  | 
COC(=O)C1=C(C)NC(C)=C(C(=O)OCCN(C)Cc2ccccc2)C1c1cccc([N+](=O)[O-])c1 (configuration not stated) [NICARDIPINE] | 1.9 | 0.64 | 1.3 | 1.3 |  |  |  | 
CN1CCC[C@H]1c1cccnc1 [NICOTINE] | 1.5 |  | 3.3 | 4.7 | 66 | 42 | 19 | 14
C[C@]12C=CC(=O)C=C1CC[C@@H]1[C@@H]2C(=O)C[C@@]2(C)[C@H]1CC[C@]2(O)C(=O)CO [PREDNISONE] | 1.6 |  | 2.1 | 1.4 | 163 | 27 | 3.6 | 13
CC(C)NCC(O)COc1cccc2ccccc12 (configuration not stated) [PROPRANOLOL] | 0.6 | 3.6 | 1.7 | 5.3 |  |  | 15 | 14
CN1C(C(=O)Nc2nccs2)=C(O)c2ccccc2S1(=O)=O [SUDOXICAM] | 0.2 | 0.2 | 0.2 | 0.2 |  |  |  | 
C[C@@H](O)[C@H]1C(=O)N2C(C(=O)O)=C(SCCOC(N)=O)S[C@H]12 [Sch-34343] | 0.17 | 0.34 | 0.22 | 0.17 |  |  |  | 
NC(=O)c1csc([C@@H]2O[C@H](CO)[C@@H](O)[C@H]2O)n1 [TIAZOFURIN] | 2 | 0.9 | 0.9 | 2.5 |  |  |  | 
Cc1cn([C@H]2C[C@H](N=[N+]=[N-])[C@@H](CO)O2)c(=O)[nH]c1=O [ZIDOVUDINE] | 1 |  | 1 |  | 46 | 14 | 24 | 15
